This note sets out measurements from US10105357B2, “Indication of antibiotic drugs for preparation of cancer inhibition pharmaceutical composition” (LAUNX BIOMEDICAL CO., LTD., priority 2014, dated 2018).

Type in all cases: cell-based, human
In assay [1] the test system is TSGH-8301 (Urinary Bladder Carcinoma). The assay is described as follows: Cell viability analysis, bladder cancer TSGH-8301. The following applies: Homo sapiens, 72 h.
In assay [2] the test system is HI650 (Lung Adenocarcinoma). The assay is described as follows: Cell viability analysis, lung cancer HI650. The following applies: Homo sapiens, NCI-H1650, 72 h.
Assay [3] has as its system MKN-45 (Gastric Adenocarcinoma). The assay is described as follows: Cell viability analysis, gastric cancer MKN-45. The following applies: Homo sapiens, MKN-45, 72 h.
The subject of assay [4] is A375 (Amelanotic Melanoma). The assay is described as follows: Cell viability analysis, skin cancer A375. The note with it: Homo sapiens, A-375, 72 h.
A further assay relates to cancer cell lines. The assay is described as follows: Cell viability analysis (WST-1) on cancer cell lines. The note with it: drug 10 μM, 72 hours, WST-1; Table 3. (Tetrazolium assays rely on reduction of a dye to a coloured formazan, in cell work by metabolically active cells.)
For assay [5], the system named is MCF7 (Mammary Gland, Adenocarcinoma). The assay is described as follows: Cell viability analysis, breast cancer MCF7. The note with it: Homo sapiens, MCF7, 72 h.
The test system of assay [6] is A549 (Lung Adenocarcinoma). Kind of assay: Cell viability analysis, lung cancer A549. The following applies: Homo sapiens, A549, 72 h.
Assay [7] relates to LoVo (Colorectal Adenocarcinoma). Kind of assay: Cell viability analysis, colon cancer LoVo. The note with it: Homo sapiens, LoVo, 72 h.
In assay [8] the test system is PC3 (p53−) (Prostate Adenocarcinoma). Kind of assay: Cell viability analysis, prostate cancer PC3. The following applies: Homo sapiens, 72 h.
The subject of assay [9] is HL-60 (Acute Promyelocytic Leukemia). Kind of assay: Cell viability analysis, leukemia HL-60. The following applies: Homo sapiens, HL-60, 72 h.
Assay [10] has as its system HepG2 (Hepatocellular Carcinoma). The assay is described as follows: Cell viability analysis, hepatic cancer HepG2. The following applies: Homo sapiens, HepG2, 72 h.
Assay [11] relates to AGS (Gastric Adenocarcinoma). Kind of assay: Cell viability analysis, gastric cancer AGS. The note with it: Homo sapiens, 72 h.
For assay [12], the system named is HeLa (Cervix Adenocarcinoma). Kind of assay: Cell viability analysis, cervical cancer HeLa. The note with it: Homo sapiens, HeLa, 72 h.
[13] abbreviates: drug 10 μM, 72 hours, WST-1, OD450 nm, read-out: cell viability (survival rate), TSGH.
Where [14] appears, read: drug 10 μM, 72 hours, WST-1, OD450 nm, read-out: cell viability (survival rate), H1650.
Setting [15] is: drug 10 μM, 72 hours, WST-1, OD450 nm, read-out: cell viability (survival rate), MKN-45.
Setting [16] is: drug 10 μM, 72 hours, WST-1, OD450 nm, read-out: cell viability (survival rate), A375.
Setting [17] is: drug 10 μM, 72 hours, WST-1, OD450 nm, read-out: cell viability (survival rate), MCF7.
The mark [18] stands for this setting: drug 10 μM, 72 hours, WST-1, OD450 nm, read-out: cell viability (survival rate), A549.
The mark [19] stands for this setting: read-out: cell viability (survival rate), LoVo, drug 10 μM, 72 hours, WST-1, OD450 nm.
[20] abbreviates: drug 10 μM, 72 hours, WST-1, OD450 nm, read-out: cell viability (survival rate), PC3.
Where [21] appears, read: drug 10 μM, 72 hours, WST-1, OD450 nm, read-out: cell viability (survival rate), HL-60.
[22] abbreviates: drug 10 μM, 72 hours, WST-1, OD450 nm, read-out: cell viability (survival rate), HepG2.
The mark [23] stands for this setting: drug 10 μM, 72 hours, WST-1, OD450 nm, read-out: cell viability (survival rate), AGS.
Where [24] appears, read: drug 10 μM, 72 hours, WST-1, OD450 nm, read-out: cell viability (survival rate), HeLa.
Setting [25] is: read-out: cell viability (survival rate), TSGH, drug 10 μM, 72 hours, WST-1, OD450 nm.
Setting [26] is: read-out: cell viability (survival rate), H1650, drug 10 μM, 72 hours, WST-1, OD450 nm.
[27] abbreviates: read-out: cell viability (survival rate), MKN-45, drug 10 μM, 72 hours, WST-1, OD450 nm.
The mark [28] stands for this setting: read-out: cell viability (survival rate), A375, drug 10 μM, 72 hours, WST-1, OD450 nm.
Setting [29] is: read-out: cell viability (survival rate), MCF7, drug 10 μM, 72 hours, WST-1, OD450 nm.
[30] abbreviates: read-out: cell viability (survival rate), A549, drug 10 μM, 72 hours, WST-1, OD450 nm.
[31] abbreviates: read-out: cell viability (survival rate), PC3, drug 10 μM, 72 hours, WST-1, OD450 nm.
Where [32] appears, read: read-out: cell viability (survival rate), HL-60, drug 10 μM, 72 hours, WST-1, OD450 nm.
[33] abbreviates: read-out: cell viability (survival rate), HepG2, drug 10 μM, 72 hours, WST-1, OD450 nm.
[34] abbreviates: read-out: cell viability (survival rate), AGS, drug 10 μM, 72 hours, WST-1, OD450 nm.
[35] abbreviates: read-out: cell viability (survival rate), HeLa, drug 10 μM, 72 hours, WST-1, OD450 nm.

Counter-ions that a name gives are not always drawn. Like-named read-outs stand apart in the source and are kept apart here.

What is called viability is a read-out of living cells in per cent, often relative to untreated cells.

Regarding `CCCc1cc(C(N)=S)ccn1` [Protionamide (Prothionamide), Protionamide], the viability at 10 µM in assay [1] (setting [13]) worked out at 103%; in assay [2] (setting [14]), 85%; in [3] (setting [15]) it was 77.6%; in assay [4] (setting [16]) it was 84.9%; in assay [5] (setting [17]) it was 51.2%; in [6] (setting [18]), 66.2%. The viability at 10 µM was found to be 85.6% in [7] (setting [19]); 45.2% in assay [8] (setting [20]); 97.6% in assay [9] (setting [21]); 118% in [10] (setting [22]); 85.9% in assay [11] (setting [23]); 97.5% in [12] (setting [24]). In the assay with cancer cell lines, the “inhibition effect on different cancer cell lines” value was “significant inhibition effect”.

Take `C=C[C@]1(C)C[C@@H](OC(=O)CSC(C)(C)CNC(=O)[C@H](N)C(C)C)[C@]2(C)[C@H](C)CC[C@]3(CCC(=O)[C@H]32)[C@@H](C)[C@@H]1O` [Valnemulin HCl]: the viability at 10 µM in [1] (setting [25]) was found to be 66.9%; in assay [2] (setting [26]) it was 78.8%; in assay [3] (setting [27]) it was 91.4%; in [4] (setting [28]) it was 57.1%; in [5] (setting [29]), 66.7%; in [6] (setting [30]) it was 62.2%. The viability at 10 µM came out at 73.6% in assay [7] (setting [19]); 83.4% in [8] (setting [31]); 93.3% in assay [9] (setting [32]); 126% in assay [10] (setting [33]); 75.5% in [11] (setting [34]); 117% in assay [12] (setting [35]). Moreover, the “inhibition effect on different cancer cell lines” value in the assay with cancer cell lines is “significant inhibition effect”.

For the compound `C[C@@H](O)[C@H]1C(=O)N2C(C(=O)O)=C(S[C@@H]3CN[C@H](C(=O)N(C)C)C3)[C@H](C)[C@H]12` [Meropenem], the viability at 10 µM was 132% in assay [1] (setting [13]); 55.4% in assay [2] (setting [14]); 84.9% in assay [3] (setting [15]); 65.1% in [4] (setting [16]); 68.1% in assay [5] (setting [17]); 46% in assay [6] (setting [18]). Further, the viability at 10 µM in assay [7] (setting [19]) is 87.3%; in assay [8] (setting [20]) it was 70.7%; in assay [9] (setting [21]) it was 102%; in assay [10] (setting [22]), 99.3%; in [11] (setting [23]), 68.3%; in assay [12] (setting [24]), 111%. Further, the “inhibition effect on different cancer cell lines” value in the assay with cancer cell lines is reported as “significant inhibition effect”.

`Nc1nc(=O)n([C@@H]2CS[C@H](CO)O2)cc1F` [Emtricitabine (Emtriva), Emtricitabine]: the viability at 10 µM in assay [1] (setting [25]) stood at 85.3%; in assay [2] (setting [26]) it was 61%; in assay [3] (setting [27]) it was 62.8%; in assay [4] (setting [28]), 84%; in assay [5] (setting [29]) it was 74%; in assay [6] (setting [30]), 86.9%. Besides, the viability at 10 µM in assay [7] (setting [19]) is 82.6%; in assay [8] (setting [31]), 77.1%; in [9] (setting [32]) it was 119%; in [10] (setting [33]), 110%; in assay [11] (setting [34]), 48%; in assay [12] (setting [35]) it was 79.6%. The “inhibition effect on different cancer cell lines” value in the assay with cancer cell lines was “significant inhibition effect”.

Take `NCCS(=O)(=O)O` [Taurine]: the viability at 10 µM worked out at 110% in [1] (setting [25]); 46.1% in [2] (setting [26]); 61.6% in [3] (setting [27]); 77.6% in assay [4] (setting [28]); 91.5% in [5] (setting [29]); 84% in [6] (setting [30]). Moreover, the viability at 10 µM turned out to be 98.5% in assay [7] (setting [19]); 61.1% in assay [8] (setting [31]); 116% in assay [9] (setting [32]); 93.1% in assay [10] (setting [33]); 64.1% in [11] (setting [34]); 84.9% in assay [12] (setting [35]). Further, the “inhibition effect on different cancer cell lines” value in the assay with cancer cell lines is recorded as “significant inhibition effect”.

For the compound `C[C@@H]1[C@H](O)[C@@H](C)/C=C/C=C/C=C/C=C/C=C/C=C/C=C/[C@H](O[C@@H]2O[C@H](C)[C@@H](O)[C@H](N)[C@@H]2O)C[C@@H]2O[C@](O)(C[C@@H](O)C[C@@H](O)[C@H](O)CC[C@@H](O)C[C@@H](O)CC(=O)O[C@H]1C)C[C@H](O)[C@H]2C(=O)O` [Amphotericin B (Abelcet), Amphotericin B], the viability at 10 µM amounted to 56% in [1] (setting [25]); 61.2% in assay [2] (setting [26]); 44% in assay [3] (setting [27]); 98.9% in [4] (setting [28]); 38.9% in assay [5] (setting [29]); 45% in assay [6] (setting [30]). Moreover, the viability at 10 µM in assay [7] (setting [19]) was 66.5%; in assay [8] (setting [31]), 66.9%; in assay [9] (setting [32]), 116%; in assay [10] (setting [33]) it was 90.3%; in [11] (setting [34]), 28.5%; in [12] (setting [35]), 84.5%. The “inhibition effect on different cancer cell lines” value with cancer cell lines was “significant inhibition effect”.

As for `COc1cc(C)c(/C=C/C(C)=C/C=C/C(C)=C/C(=O)O)c(C)c1C` [Acitretin], the viability at 10 µM in assay [1] (read-out: cell viability (survival rate), TSGH) came to 127%; in assay [2] (read-out: cell viability (survival rate), H1650), 43.8%; in [3] (read-out: cell viability (survival rate), MKN-45), 78.5%; in [4] (read-out: cell viability (survival rate), A375), 61.4%; in assay [5] (read-out: cell viability (survival rate), MCF7), 119%; in assay [6] (read-out: cell viability (survival rate), A549), 69.1%. Further, the viability at 10 µM turned out to be 83.6% in [7] (read-out: cell viability (survival rate), LoVo); 92.5% in assay [8] (read-out: cell viability (survival rate), PC3); 96.7% in assay [9] (read-out: cell viability (survival rate), HL-60); 72.6% in [10] (read-out: cell viability (survival rate), HepG2); 68.1% in [11] (read-out: cell viability (survival rate), AGS); 52.7% in assay [12] (read-out: cell viability (survival rate), HeLa). Moreover, in the assay on cancer cell lines, the “inhibition effect on different cancer cell lines” value is given as “significant inhibition effect”.

As for `C[C@@H]1CN(c2c(F)c(N)c3c(=O)c(C(=O)O)cn(C4CC4)c3c2F)C[C@H](C)N1` [Sparfloxacin], the viability at 10 µM in assay [1] (setting [25]) stood at 68.1%; in [2] (setting [26]), 88.5%; in [3] (setting [27]), 57.5%; in [4] (setting [28]), 82.6%; in assay [5] (setting [29]) it was 56.3%; in [6] (setting [30]), 86.5%. Also, the viability at 10 µM in [7] (setting [19]) stood at 97%; in assay [8] (setting [31]), 50.1%; in assay [9] (setting [32]), 99.3%; in assay [10] (setting [33]) it was 97.6%; in assay [11] (setting [34]), 79.9%; in [12] (setting [35]) it was 88.3%. Besides, the “inhibition effect on different cancer cell lines” value with cancer cell lines is given as “significant inhibition effect”.
